# Measured values published in US20060142304A1, “Method for treating or preventing pruritic and neurogenic skin disorders” (priority 2004, published 2006).
# Structures can show the parent of a compound that is named as a salt.
# How the values were obtained:
# CD-1 mice [1] = experiment: Resiniferatoxin-induced neurogenic inflammation (ear edema) in the mouse ear; assay type: in vivo; conditions: for % Inhibition of the Ear Edema: topical to left ear (20 μL) immediately after resiniferatoxin (0.05%) challenge, 7-mm ear biopsy weight 30 minutes after, lidocaine 0.5% w/v, sertaconazole nitrate 1% w/v in 70% ethanol/30% propylene glycol
# Description: Eight Albino male CD-1 mice per group, 7-9 weeks old, were used. Induction of neurogenic inflammation in the mouse ear was based on known methods (Inoue H, et al., Br J Pharmacol. 110:1614-1620, 1993). A 20-μl volume of Resiniferatoxin (0.05%) prepared in acetone was applied to the left ears (8 mice per treatment group). The right ear was treated as a control and not treated. Lidocaine hydrochloride (Sigma Aldrich, St. Louis, Mo.) was prepared as a 0.5% w/v solution in 70% ethanol/30% propylene glycol vehicle. Sertaconazole nitrate (Grupo Ferrer International, Barcelona, Spain) was prepared as a 1.0% w/v solution in a 70% ethanol/30% propylene glycol vehicle and applied to the left ear (20 μL) immediately after resiniferatoxin challenge. The mice were sacrificed by CO2 inhalation 30 minutes after applying the solutions. The left and right ears were removed and a 7-mm biopsy was removed from each ear and weighed. The difference in biopsy weights between the right and left ear was calculated. The percent inhibition was calculated by comparing treatments to resiniferatoxin alone. Anti-neurogenic inflammation effects of compounds are evident as an inhibition of the increase in ear weight.
# CD-1 mice [2] = experiment: Substance P-induced itch-associated scratching behavior in mice; assay type: in vivo, mouse
# Excerpt: In this model, an itch-associated response is induced by intradermal injection of the neuropetide, Substance-P, in mice, and scratching behavior is observed and quantitated. […] Clinically, scratching is used as an objective measure of itch since itch is a sensation which promotes the desire to scratch the stimulated area (Yosipovitch G., Definitions of Itch, in Itch Basic Mechanisms and Therapy, ed. Yosipovitch G., et al, 2003) Eight Albino male CD-1 mice per group, 7-9 weeks old, were used. Induction of scratching behavior in the mouse was based on known methods (Andoh T, et al., J Pharmacol Exp Ther. 286:1140-1145, 1998) and produces features similar to itch in humans. An itch-associated response was induced by intradermal injection of Substance P in CD-1 mice, and scratching behavior is observed and quantitated. Before the experiment, mice were individually housed in a plastic cage for at least 1 hour for acclimation. Mice are pre-treated for 30 minutes with topical application of Sertaconazole Nitrate (1%) prepared in 100% ethanol, to an area of the back, which had been shaved one day prior to the experiment. […] The number of scratches elicited during a 30 minute period after injection of Substance-P was determined by playback of the videotape.
SMILES,% Inhibition of the Ear Edema (CD-1 mice [1]) [%],"reducing neurogenic inflammation (result in words) (CD-1 mice [1]; resiniferatoxin mouse ear model, compared to the control or untreated ear)","reduction of the itch compared to placebo (CD-1 mice [2]; Substance P scratching model, topical 1% sertaconazole nitrate) [%]","Scratches per 30 min (Mean ± S. D.) (CD-1 mice [2]; topical 1% w/v in 100% ethanol on shaved back, 30 minutes pre-treatment, 300 ug Substance P intradermal, 30 minute period after injection)"
"CCN(CC)CC(=O)Nc1c(C)cccc1C [Lidocaine, Lidocaine hydrochloride]",28.7,,,
"Clc1ccc(C(Cn2ccnc2)OCc2csc3c(Cl)cccc23)c(Cl)c1 (centres unmarked) [Sertaconazole Nitrate, Sertaconazole nitrate]",48.9,highly effective,38.7,39.8 ± 2.7
